ChEMBL document CHEMBL1201862, “PubChem BioAssay data set” (2004)
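Growth conditions: 96-well plates. Treatment: test compound, 48 hours, 5 concentrations. Analysis: linear interpolation between bracketing concentrations; unreached endpoints set to highest concentration. Here, GI50 denotes the concentration required for 50% inhibition of growth.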 Active and inactive are the calls of the source. Cut-off read from the data, not from the text of the source: active = GI50 up to about 1.1 µM and inactive = higher.

What was measured:
Assay in all cases: NCI anticancer screen, dose series, 48 h
HCC 2998 = system: HCC 2998
SR = system: SR
SF-539 = system: SF-539
OVCAR-8 = system: OVCAR-8
MOLT-4 = system: MOLT-4
SK-OV-3 = system: SK-OV-3
A498 = system: A498
HCT-116 = system: HCT-116
SK-MEL-28 = system: SK-MEL-28
HCT-15 = system: HCT-15
A549 = system: A549
OVCAR-5 = system: OVCAR-5
CCRF-CEM = system: CCRF-CEM
HOP-92 = system: HOP-92
LOX IMVI = system: LOX IMVI

Row | SMILES | GI50 (HCC 2998) | GI50 (SR) | GI50 (SF-539) | GI50 (OVCAR-8) | GI50 (MOLT-4) | GI50 (SK-OV-3) | GI50 (A498) | GI50 (HCT-116) | GI50 (SK-MEL-28) | GI50 (HCT-15) | GI50 (A549) | GI50 (OVCAR-5) | GI50 (CCRF-CEM) | GI50 (HOP-92) | GI50 (LOX IMVI)
1 | O=C(CC1(O)C(=O)Nc2ccc([N+](=O)[O-])cc21)c1ccc2ccccc2c1 (configuration not stated) | > 100 µM (inactive) | > 100 µM (inactive) | > 100 µM (inactive) | > 100 µM (inactive) | > 100 µM (inactive) | > 100 µM (inactive) | > 100 µM (inactive) | > 100 µM (inactive) | > 100 µM (inactive) | > 100 µM | > 100 µM (inactive) | > 100 µM (inactive) | > 100 µM (inactive) |  | 
2 | OC1=CN=C(C2CC2)Oc2ccccc21 | > 100 µM (inactive) |  | > 100 µM (inactive) | > 100 µM (inactive) | > 100 µM (inactive) | > 100 µM (inactive) | > 100 µM (inactive) | > 100 µM (inactive) | > 100 µM (inactive) | > 100 µM | > 100 µM (inactive) |  | > 100 µM (inactive) | 96.2 µM (inactive) | > 100 µM (inactive)
3 | CCCCCCCCCCCCCCCCNc1cccc2ccccc12 | > 100 µM (inactive) | > 100 µM (inactive) | > 100 µM (inactive) | > 100 µM (inactive) | > 100 µM (inactive) | > 100 µM (inactive) |  | > 100 µM (inactive) | > 100 µM (inactive) | > 100 µM | > 100 µM (inactive) |  | > 100 µM (inactive) |  | > 100 µM (inactive)
4 | CC(=O)N/C(=C\c1ccc(/C=C(\NC(C)=O)c2nc3cc(Cl)ccc3[nH]2)cc1)c1nc2ccccc2[nH]1 |  | > 100 µM (inactive) | > 100 µM (inactive) | > 100 µM (inactive) | > 100 µM (inactive) | > 100 µM (inactive) | > 100 µM (inactive) | > 100 µM (inactive) | > 100 µM (inactive) | > 100 µM | > 100 µM (inactive) | > 100 µM (inactive) | > 100 µM (inactive) | > 100 µM (inactive) | 
5 | O=C(O)C(Cc1ccccc1)N1C(=O)N/C(=C\c2ccc(F)cc2)C1=O (configuration not stated) | > 100 µM (inactive) | > 100 µM (inactive) | > 100 µM (inactive) | > 100 µM (inactive) | > 100 µM (inactive) | > 100 µM (inactive) |  | > 100 µM (inactive) |  | > 100 µM | > 100 µM (inactive) | > 100 µM (inactive) | > 100 µM (inactive) | > 100 µM (inactive) | > 100 µM (inactive)
6 | O=[N+]([O-])c1nccn1CC(O)CN1CC1 (configuration not stated) |  | 27.2 µM (inactive) | 55.6 µM (inactive) | 37.8 µM (inactive) | 32 µM (inactive) | 35.1 µM (inactive) | > 100 µM (inactive) | 47.6 µM (inactive) | > 100 µM (inactive) | 58.6 µM | > 100 µM (inactive) | > 100 µM (inactive) | 24.7 µM (inactive) |  | 
7 | CN(C)CC(C)(C)C(/C=C/c1ccccc1)=N\Nc1ccccc1 |  | 0.798 µM (active) | 0.28 µM (active) | 12.8 µM (inactive) | 0.451 µM (active) | 5 µM (inactive) | 21.8 µM (inactive) | 0.705 µM (active) | 1.89 µM (inactive) | 0.309 µM | 0.385 µM (active) | 0.31 µM (active) | 0.367 µM (active) |  | 0.296 µM (active)
8 | CC1OC(=O)N2CCC=CC12 (configuration not stated) |  |  | > 100 µM (inactive) | > 100 µM (inactive) | > 100 µM (inactive) | > 100 µM (inactive) | > 100 µM (inactive) | > 100 µM (inactive) | > 100 µM (inactive) | > 100 µM | > 100 µM (inactive) | > 100 µM (inactive) | > 100 µM (inactive) |  | > 100 µM (inactive)
9 | CC(C)C1CC(O)O[C@@H]([C@@H](C)[C@H]2CC(=O)[C@@H]3[C@@H]4[C@@H](O)[C@H](O)[C@H]5[C@@H](O)[C@H](O)CC[C@]5(C)[C@H]4CC[C@]23C)C1 (some centres not stated) | > 100 µM (inactive) | > 100 µM (inactive) | > 100 µM (inactive) | 54.1 µM (inactive) | > 100 µM (inactive) | 34.5 µM (inactive) |  | 29.4 µM (inactive) | > 100 µM (inactive) | > 100 µM | 53.1 µM (inactive) |  | > 100 µM (inactive) | 22.2 µM (inactive) | 50.1 µM (inactive)
10 | O=C(Nc1ccc(Cl)cc1Cl)C1C(=O)N(c2ccc(Cl)cc2Cl)C(=O)/C1=N\Nc1ccc([N+](=O)[O-])cc1[N+](=O)[O-] (configuration not stated) | 37.6 µM (inactive) |  | 36.6 µM (inactive) | 60.8 µM (inactive) | 22 µM (inactive) | > 100 µM (inactive) | 47.5 µM (inactive) | 26.9 µM (inactive) | 47.8 µM (inactive) | 9.82 µM | > 100 µM (inactive) | 44.5 µM (inactive) | 23.1 µM (inactive) | 23.3 µM (inactive) | 
11 | O=C(Nc1ccc(Cl)cc1Cl)C1C(=O)C(=O)N(c2ccc(Cl)cc2Cl)C1=O (configuration not stated) | > 100 µM (inactive) |  | > 100 µM (inactive) | > 100 µM (inactive) |  | > 100 µM (inactive) | > 100 µM (inactive) | 99.1 µM (inactive) | > 100 µM (inactive) | > 100 µM | > 100 µM (inactive) | > 100 µM (inactive) |  |  | > 100 µM (inactive)
12 | O=C(/C=N/O)Nc1ccc(Cl)c(I)c1 | 14.1 µM (inactive) | 15.7 µM (inactive) |  | 28.9 µM (inactive) | 19.6 µM (inactive) | 17.8 µM (inactive) |  | 12.9 µM (inactive) | 27.7 µM (inactive) | 14.4 µM | 26.9 µM (inactive) | 21.6 µM (inactive) | 26.7 µM (inactive) |  | 11.1 µM (inactive)
13 | O=C1NC(=O)C2C(=O)NC(=O)C1C2Cc1ccco1 (configuration not stated) | > 100 µM (inactive) |  | > 100 µM (inactive) | > 100 µM (inactive) | > 100 µM (inactive) | > 100 µM (inactive) | > 100 µM (inactive) |  | > 100 µM (inactive) | > 100 µM | > 100 µM (inactive) | > 100 µM (inactive) | > 100 µM (inactive) | > 100 µM (inactive) | > 100 µM (inactive)
14 | CCOC(=O)C1=C(C)C2C3C(=O)OC(=O)C3C1(C)C1C(=O)OC(=O)C21 (configuration not stated) | > 100 µM (inactive) |  | > 100 µM (inactive) | > 100 µM (inactive) | > 100 µM (inactive) | > 100 µM (inactive) | > 100 µM (inactive) | > 100 µM (inactive) | > 100 µM (inactive) | > 100 µM | > 100 µM (inactive) |  | > 100 µM (inactive) | > 100 µM (inactive) | > 100 µM (inactive)
15 | COc1cc(OC)c2ssc3c(OC)cc(OC)c4ssc1c2-c43 | > 100 µM (inactive) |  | > 100 µM (inactive) | > 100 µM (inactive) | > 100 µM (inactive) | > 100 µM (inactive) | > 100 µM (inactive) | > 100 µM (inactive) | > 100 µM (inactive) | > 100 µM | > 100 µM (inactive) | > 100 µM (inactive) | > 100 µM (inactive) |  | > 100 µM (inactive)
16 | N#C/C(=C1\SC(/N=N/c2ccccc2)C(=O)N1c1ccccc1)c1nc2ccccc2[nH]1 (configuration not stated) |  |  | 29.7 µM (inactive) | > 100 µM (inactive) | 26.1 µM (inactive) | 66.5 µM (inactive) | > 100 µM (inactive) | > 100 µM (inactive) | > 100 µM (inactive) | > 100 µM | > 100 µM (inactive) | > 100 µM (inactive) | 42.8 µM (inactive) | 23.5 µM (inactive) | > 100 µM (inactive)
